How the values were obtained:
[1] = AUC in CD1 mouse at 30 mg/kg, po after 0.25 to 24 hrs; assay type: ADME, organism-based; design: time lower 0.25 hr, dose 30 mg/kg, time upper 24 hr, route oral; details: in vivo
[2] = Cmax in Sprague-Dawley rat at 3 mg/kg, po administered via gavage after 0.25 to 24 hrs; assay type: ADME, organism-based; design: dose 3 mg/kg, route oral; details: in vivo
[3] = Half life in beagle dog at 2.5 mg/kg, po administered via gavage after 0.25 to 24 hrs; assay type: ADME, organism-based, Canis lupus familiaris; details: in vivo
[4] = Cmax in CD1 mouse at 30 mg/kg, po after 0.25 to 24 hrs; assay type: ADME, organism-based; design: dose 30 mg/kg, route oral; details: in vivo
[5] = AUC in Sprague-Dawley rat at 3 mg/kg, po administered via gavage after 0.25 to 24 hrs; assay type: ADME, organism-based; design: time upper 24 hr, dose 3 mg/kg, time lower 0.25 hr, route oral; details: in vivo
[6] = Inhibition of Hepatitis C virus genotype 6a replicon NS5A transfected in human HuH7 cells assessed as decrease in replication of viral replicon after 4 days by luciferase reporter gene assay; assay type: cell-based, Hepatitis C virus subtype 6a; details: Huh-7, 96 h
[7] = Cmax in CD1 mouse at 3 mg/kg, po after 0.25 to 24 hrs; assay type: ADME, organism-based; design: dose 3 mg/kg, route oral; details: in vivo
[8] = Half life in Sprague-Dawley rat at 3 mg/kg, po administered via gavage after 0.25 to 24 hrs; assay type: ADME, organism-based; details: in vivo
[9] = Inhibition of Hepatitis C virus genotype 4a replicon NS5A transfected in human HuH7 cells assessed as decrease in replication of viral replicon after 4 days by luciferase reporter gene assay; assay type: cell-based, Hepatitis C virus subtype 4a; details: Huh-7, 96 h
[10] = Half life in CD1 mouse at 30 mg/kg, po after 0.25 to 24 hrs; assay type: ADME, organism-based; details: in vivo
[11] = Inhibition of Hepatitis C virus genotype 2a replicon NS5A transfected in human HuH7 cells assessed as decrease in replication of viral replicon after 4 days by luciferase reporter gene assay; assay type: cell-based, Hepatitis C virus subtype 2a; details: Huh-7, 96 h
[12] = Inhibition of Hepatitis C virus genotype 3a replicon NS5A transfected in human HuH7 cells assessed as decrease in replication of viral replicon after 4 days by luciferase reporter gene assay; assay type: cell-based, Hepatitis C virus subtype 3a; details: Huh-7, 96 h
[13] = test system: Hepatitis C virus (isolate H77); assay: Resistance ratio of EC50 for Hepatitis C virus genotype 1a H77 replicon NS5A Y93H mutant to EC50 for Hepatitis C virus genotype 1a H77 replicon NS5A
[14] = AUC in CD1 mouse at 3 mg/kg, po after 0.25 to 24 hrs; assay type: ADME, organism-based; design: time upper 24 hr, dose 3 mg/kg, time lower 0.25 hr, route oral; details: in vivo
[15] = AUC in beagle dog at 2.5 mg/kg, po administered via gavage after 0.25 to 24 hrs; assay type: ADME, organism-based, Canis lupus familiaris; design: dose 2.5 mg/kg, time 0.25-24 hr, route oral; details: in vivo
[16] = test system: Hepatitis C virus (isolate H77); assay: Resistance ratio of EC50 for Hepatitis C virus genotype 1a H77 replicon NS5A Q30R mutant to EC50 for Hepatitis C virus genotype 1a H77 replicon NS5A
[17] = test system: Hepatitis C virus (isolate H77); assay: Resistance ratio of EC50 for Hepatitis C virus genotype 1a H77 replicon NS5A M28T mutant to EC50 for Hepatitis C virus genotype 1a H77 replicon NS5A
[18] = Inhibition of Hepatitis C virus genotype 1a H77 replicon NS5A transfected in human HuH7 cells assessed as decrease in replication of viral replicon in presence of 40% human plasma after 4 days by luciferase reporter gene assay; assay type: cell-based, Hepatitis C virus (isolate H77); details: Huh-7, Plasma, 96 h
[19] = Inhibition of Hepatitis C virus genotype 2b replicon NS5A transfected in human HuH7 cells assessed as decrease in replication of viral replicon after 4 days by luciferase reporter gene assay; assay type: cell-based, Hepatitis C virus subtype 2b; details: Huh-7, 96 h
[20] = Half life in CD1 mouse at 3 mg/kg, po after 0.25 to 24 hrs; assay type: ADME, organism-based; details: in vivo
[21] = Inhibition of Hepatitis C virus genotype 1a H77 replicon NS5A transfected in human HuH7 cells assessed as decrease in replication of viral replicon after 4 days by luciferase reporter gene assay; assay type: cell-based, Hepatitis C virus (isolate H77); details: Huh-7, 96 h
[22] = Inhibition of Hepatitis C virus genotype 1a H77 replicon NS5A Q30R mutant transfected in human HuH7 cells assessed as decrease in replication of viral replicon after 4 days by luciferase reporter gene assay; assay type: cell-based, Hepatitis C virus (isolate H77); details: Huh-7, 96 h
[23] = Cmax in beagle dog at 2.5 mg/kg, po administered via gavage after 0.25 to 24 hrs; assay type: ADME, organism-based, Canis lupus familiaris; design: dose 2.5 mg/kg, route oral; details: in vivo
[24] = test system: Hepatitis C virus (isolate H77); assay: Resistance ratio of EC50 for Hepatitis C virus genotype 1a H77 replicon NS5A Y93C mutant to EC50 for Hepatitis C virus genotype 1a H77 replicon NS5A
[25] = Inhibition of Hepatitis C virus genotype 1b Con1 replicon NS5A transfected in human HuH7 cells assessed as decrease in replication of viral replicon in presence of 40% human plasma after 4 days by luciferase reporter gene assay; assay type: cell-based, Hepatitis C virus (isolate Con1); details: Huh-7, Plasma, 96 h
[26] = Inhibition of Hepatitis C virus genotype 1b Con1 replicon NS5A transfected in human HuH7 cells assessed as decrease in replication of viral replicon after 4 days by luciferase reporter gene assay; assay type: cell-based, Hepatitis C virus (isolate Con1); details: Huh-7, 96 h
[27] = Cmax in CD1 mouse at 5 mg/kg, po after 0.25 to 24 hrs; assay type: ADME, organism-based; design: dose 5 mg/kg, route oral; details: in vivo
[28] = AUC in CD1 mouse at 5 mg/kg, po after 0.25 to 24 hrs; assay type: ADME, organism-based; design: time 0.25-24 hr, dose 5 mg/kg, route oral; details: in vivo
[29] = test system: Hepatitis C virus (isolate H77); assay: Ratio of EC50 for Hepatitis C virus genotype 1a H77 replicon NS5A in presence of 40% human plasma to EC50 for Hepatitis C virus genotype 1a H77 replicon NS5A in absence of 40% human plasma
[30] = Half life in Sprague-Dawley rat at 3 mg/kg, iv administered as bolus dose after 0.1 to 24 hrs; assay type: ADME, organism-based; details: in vivo
[31] = Inhibition of Hepatitis C virus genotype 1a H77 replicon NS5A M28T mutant transfected in human HuH7 cells assessed as decrease in replication of viral replicon after 4 days by luciferase reporter gene assay; assay type: cell-based, Hepatitis C virus (isolate H77); details: Huh-7, 96 h
[32] = Half life in CD1 mouse at 5 mg/kg, po after 0.25 to 24 hrs; assay type: ADME, organism-based; details: in vivo
[33] = Oral bioavailability in CD1 mouse at 5 mg/kg after 0.25 to 24 hrs; assay type: ADME, organism-based; details: in vivo
[34] = Plasma clearance in Sprague-Dawley rat at 3 mg/kg, iv administered as bolus dose after 0.1 to 24 hrs; assay type: ADME, organism-based
[35] = Oral bioavailability in Sprague-Dawley rat at 3 mg/kg administered via gavage after 0.25 to 24 hrs; assay type: ADME, organism-based; details: in vivo
[36] = Plasma clearance in CD1 mouse at 5 mg/kg, iv after 0.1 to 24 hrs; assay type: ADME, organism-based
[37] = Half life in CD1 mouse at 5 mg/kg, iv after 0.1 to 24 hrs; assay type: ADME, organism-based; details: in vivo
[38] = Oral bioavailability in CD1 mouse at 3 mg/kg after 0.25 to 24 hrs; assay type: ADME, organism-based; details: in vivo
[39] = Plasma clearance in CD1 mouse at 3 mg/kg, iv after 0.1 to 24 hrs; assay type: ADME, organism-based
[40] = Half life in CD1 mouse at 3 mg/kg, iv after 0.1 to 24 hrs; assay type: ADME, organism-based; details: in vivo
[41] = Cmax in CD1 mouse at 15 mg/kg, po after 0.25 to 24 hrs; assay type: ADME, organism-based; design: dose 15 mg/kg, route oral; details: in vivo
[42] = Half life in CD1 mouse at 15 mg/kg, po after 0.25 to 24 hrs; assay type: ADME, organism-based; details: in vivo
[43] = AUC in CD1 mouse at 15 mg/kg, po after 0.25 to 24 hrs; assay type: ADME, organism-based; design: time lower 0.25 hr, dose 15 mg/kg, time upper 24 hr, route oral; details: in vivo
[44] = test system: Hepatitis C virus (isolate Con1); assay: Ratio of EC50 for Hepatitis C virus genotype 1b Con1 replicon NS5A in presence of 40% human plasma to EC50 for Hepatitis C virus genotype 1b Con1 replicon NS5A in absence of 40% human plasma

Structure (SMILES)	Cmax [2] [ng/mL]	AUC [5] [ng·h/mL]	EC50 [6] [pM]	Cmax [7] [ng/mL]	EC50 [9] [pM]	EC50 [11] [pM]	EC50 [12] [pM]	Ratio EC50 [13]	AUC [14] [ng·h/mL]	Ratio EC50 [16]	Ratio EC50 [17]	EC50 [18] [pM]	EC50 [19] [pM]	half-life [20] [h]	EC50 [21] [pM]	EC50 [22] [pM]	Ratio EC50 [24]	EC50 [25] [pM]	EC50 [26] [pM]	EC50 [31] [pM]	further results
COC(=O)N[C@H](C(=O)N1CCC[C@H]1c1nc2cc([C@H]3CC[C@H](c4cc5nc([C@@H]6CCCN6C(=O)[C@@H](NC(=O)OC)C(C)C)[nH]c5cc4F)N3c3cc(F)c(N4CCCCC4)c(F)c3)c(F)cc2[nH]1)C(C)C	190	2880	7	370	7	12	6	27	4410	3	2	96	4	6.1	3 to 4	8	4	153	7	–	AUC [1]: 48200 ng·h/mL; half-life [3]: 5.5 h; Cmax [4]: 3390 ng/mL; half-life [8]: 5.8 h; half-life [10]: 5.5 h; AUC [15]: 17200 ng·h/mL; Cmax [23]: 1380 ng/mL
COC(=O)N[C@H](C(=O)N1CCC[C@H]1c1nc2ccc([C@H]3CC[C@H](c4ccc5nc([C@@H]6CCCN6C(=O)[C@@H](NC(=O)OC)C(C)C)[nH]c5c4)N3c3ccc(C(C)(C)C)cc3)cc2[nH]1)C(C)C	60	560	–	–	6	155	14	239	–	14	4	155	10	–	2 to 11	27	8	272	14	8	Cmax [27]: 270 ng/mL; AUC [28]: 1390 ng·h/mL; Ratio EC50 [29]: 10 to 20; half-life [30]: 4.1 h; half-life [32]: 2.6 h; bioavailability [33]: 11%; clearance [34]: 17.7 mL/min/kg; bioavailability [35]: 20%; clearance [36]: 6.33 mL/min/kg; half-life [37]: 2 h
COC(=O)N[C@H](C(=O)N1CCC[C@H]1C(=O)Nc1ccc([C@H]2CC[C@@H](c3ccc(NC(=O)[C@@H]4CCCN4C(=O)[C@@H](NC(=O)OC)C(C)C)cc3)N2c2ccc(C(C)(C)C)cc2)cc1)C(C)C	–	–	–	570	–	–	–	–	11000	–	–	–	–	–	–	–	–	–	–	–	bioavailability [38]: 42%; clearance [39]: 1.83 mL/min/kg; half-life [40]: 11 h
COC(=O)N[C@H](C(=O)N1CCC[C@H]1c1nc2cc([C@H]3CC[C@H](c4ccc5[nH]c([C@@H]6CCCN6C(=O)[C@@H](NC(=O)OC)C(C)C)nc5c4)N3c3cc(F)c(N4CCCCC4)c(F)c3)ccc2[nH]1)C(C)C	50	30	7	220	5	13	9	163	1800	8	3	154	7	3.9	3 to 6	25	6	261	6	10	Cmax [41]: 930 ng/mL; half-life [3]: 2.8 h; half-life [42]: 3.2 h; AUC [15]: 1230 ng·h/mL; Cmax [23]: 200 ng/mL; AUC [43]: 9250 ng·h/mL
COC(=O)N[C@H](C(=O)N1CCC[C@H]1c1nc2cc([C@H]3CC[C@H](c4cc5nc([C@@H]6CCCN6C(=O)[C@@H](NC(=O)OC)C(C)C)[nH]c5cc4F)N3c3ccc(C(C)(C)C)cc3)c(F)cc2[nH]1)C(C)C	–	–	15	–	8	98	8	30	–	3	2	216	9	–	2 to 8	5	3	96	7	4	Ratio EC50 [29]: 15 to 30; Ratio EC50 [44]: 15 to 30
COC(=O)N[C@H](C(=O)N1CCC[C@H]1c1nc2cc([C@H]3CC[C@H](c4cc5[nH]c([C@@H]6CCCN6C(=O)[C@@H](NC(=O)OC)C(C)C)nc5cc4F)N3c3ccc(C(C)(C)C)cc3)c(F)cc2[nH]1)C(C)C	–	–	–	630	–	–	–	–	5790	–	–	–	–	4.4	–	–	–	–	–	–	Cmax [41]: 3180 ng/mL; half-life [42]: 4.8 h; AUC [43]: 36200 ng·h/mL
